Assay [1] concerns S. aureus DSM 20231. Briefly: Adjuvant (extended non-antibiotic) combination screen. The assay is classed as cell-based, Staphylococcus aureus. Here is the method:
MICs were tested in all strains for the main screen. Drugs were two-fold serially diluted in 11 concentrations, and 32 no-drug control wells were included in each plate. Experiments were conducted in 384-well plates (ref. 781271 by Greiner BioOne), with a total volume of 30 μl for S. aureus and B. subtilis and 55 μl for S. pneumoniae. Volumes were optimized for each strain to achieve good dynamic range for growth and minimize risk of cross-contamination between wells. Plates were inoculated with a starting optical density at 595 nm (OD595 nm) of 0.01 from an overnight culture. All liquid handling was performed using a Biomek FX liquid handler (Beckman Coulter). Plates were sealed with breathable membranes and incubated at 37° C. OD595 nm was measured every 30 minutes for 14 hours. The MIC was considered as the first concentration at which growth was inhibited. Experiments were conducted in biological duplicates. For the adjuvant screen, antibiotics were tested in S. aureus DSM 20231 at the same concentrations as for the main screen. Non-antibiotics concentrations were selected to fall within therapeutic ranges.
62 drugs, hereafter designated as recipients, were arrayed in 384-well plates (ref. 781271 by Greiner BioOne) in three two-fold serial dilutions and two technical replicates. Concentrations were selected according to MICs, with the highest concentration corresponding to the MIC, and the intermediate and lowest concentration corresponding to ½ and ¼ MIC, respectively. Plates were kept frozen and defrosted upon each experimental run, when the same 62 drugs and in the same three concentrations were added as donor drugs (one drug at one concentration for each recipient plate). A few drugs were screened only as donors: the combinations co-amoxiclav and cotrimoxazole in B. subtilis and S. aureus DSM 20231; co-amoxiclav, clavulanic acid, pseudomonic acid and cefuroxime in S. aureus Newman. All donor drugs were tested in two biological replicates. Control wells were included in each plate (six no-drug wells, three plain medium wells and three wells containing only the donor drug). After the addition of donor drugs, plates were inoculated with cells. Handling, inoculation, growth conditions, plate incubation and OD595 nm measurements were performed as for the MIC determination.
For the adjuvant screen, 44 non-antibiotic drugs were tested against the same recipient drugs of the main screen for S. aureus DSM 20231.
The inventors selected 44 drugs to include pharmaceuticals that can be co-administered with antibiotics in S. aureus infections or non-antibiotics with previously reported antibacterial activity against S. aureus. […] Interactions were scored and benchmarked as for the main screen (Methods).

In assay [2] the test system is S. aureus USA300. Briefly: Time-kill experiments. The assay is classed as cell-based, Staphylococcus aureus. As to conditions: ticagrelor 5 μg/ml, gentamicin 1.5 μg/ml, plated every 30 minutes for 2 hours (FIG. 5d). Here is the method:
Overnight cultures of S. aureus USA300 were diluted 1:100 in 20 ml of TSB medium, incubated for 1 h in flasks at 37° C. with continuous shaking and diluted again 1:100 in 20 ml prewarmed TSB with ticagrelor (5 μg/ml), gentamicin (1.5 μg/ml), their combination or without drugs. 50 μl of serial 10-fold dilutions of cultures were plated on TSA plates every 30 minutes for 2 hours. Cell viability was determined by counting CFUs after plates were incubated overnight in four independent experiments.

In assay [3] the test system is MRSA clinical isolates. Briefly: 8×8 broth microdilution checkerboard assays. The assay is classed as cell-based, Staphylococcus aureus. The following applies: MSSA and MRSA. The source says:
(§1) Drug interaction networks in S. aureus, with drugs grouped according to their class (a) or targeted cellular process (b). Unique interactions across both strains tested are considered (i=331). Edge thickness represents the proportion of interactions for each node pair, considering all possible interactions given the number of drugs in each node. Nodes depict the drug class (a) or the targeted cellular process (b), and size is proportional to the number of drugs in the represented class/process. Only interacting drugs are considered (d=62). Synergies, antagonisms and nodes are colored according to FIG. 1. c. Novel and previously reported interactions detected in S. aureus. Interactions are considered known if reported in any S. aureus strain (Supplementary Table 4). d-e. Novel synergies are effective against MRSA clinical isolates in vitro (d) and in vivo in the G. mellonella infection model (e). […] The percentage of surviving larvae after treatment and in the untreated controls was monitored over time. […]
Combinations were tested in the same experimental conditions as for the screen, but at higher concentration resolution: drugs were diluted in eight concentrations spanning linearly-space gradients to assemble 8×8 checkerboards for each combination tested. […] Data was analyzed with the same pipeline as for the screen (Methods).
On the technique in general: Dilution methods test growth across graded concentrations, often in twofold steps.

Assay [4] concerns MRSA. In words: G. mellonella infection model, drug combination therapy. The assay is classed as in vivo, Galleria mellonella. As to conditions: G. mellonella infected with MRSA isolate resistant to tigecycline, gentamicin 2 μg/ml, ticagrelor 100 μg/ml (FIG. 5e).
From the text: as §1
Larvae of the greater wax moth (Galleria mellonella) at their final instar larval stage were used for evaluation of selected drug combinations to assess their efficacy against MRSA in vivo. […] The survival of Galleria larvae was monitored at the indicated time points by two observers independently. Each strain-drug combination was evaluated in three independent experiments.

“Also recorded” adds a separate entry of the source.

Consider `CCCSc1nc(N[C@@H]2C[C@H]2c2ccc(F)c(F)c2)c2nnn([C@@H]3C[C@H](OCCO)[C@@H](O)[C@H]3O)c2n1` [ticagrelor], for which the number of synergies in assay [1] (S. aureus, non-antibiotic drugs with antibiotics) is recorded as 13. The number of interactions in assay [1] (among the 44 non-antibiotics tested, against panel of 62 drugs, S. aureus DSM 20231) is listed as 27. Besides, the entries for the “interaction with gentamicin at killing level (CFU over time)” value in assay [2] and in assay [2] (listed as Ticagrelor) were “evident” and “synergizes”, respectively. In assay [3] (MRSA isolate resistant to tigecycline (FIG. 5c), ticagrelor combined with gentamicin), the “interaction with gentamicin at growth inhibition level” value is given as “sensitized; also recorded: synergizes”. In assay [3] (ticagrelor combined with nisin), the “sensitization to cationic peptide nisin” value is reported as “sensitized”. The “interaction with gentamicin in vivo (survival of infected larvae)” value in assay [4] is “evident”; in assay [4] (listed as Ticagrelor) it was “synergizes”.

Values taken from patent US20260102460A1, “NOVEL COMBINATIONS OF ANTIBIOTICS AND NON-ANTIBIOTIC DRUGS EFFECTIVE IN VIVO AGAINST GRAM-POSITIVE BACTERIA, IN PARTICULAR METHICILLIN-RESISTANT S. AUREUS (MRSA)” (EUROPEAN MOLECULAR BIOLOGY LABORATORY, priority 2022, published 2026).
